# Measured values taken from the supplement of paper PMC10307832.
# How the values were obtained:
# Assay in all cases: relative viability (nuclei count vs DMSO), 5 days (fraction); higher = more cells survive
# [1] = compound: CCn1c(-c2nonc2N)nc2cnc(Oc3cccc(NC(=O)c4ccc(OCCN5CCOCC5)cc4)c3)cc21 + CCNC(=O)c1noc(-c2cc(C(C)C)c(O)cc2O)c1-c1ccc(CN2CCOCC2)cc1 [Luminespib] (partner 0.01 µM)
# How it was run: (§1)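 A single step with final 0.05% Triton X-100, 1% formaldehyde and 1 ug/ml Hoechst fixed the cells and stained nuclei 5 days after treatment. Lung cancer cell lines in 1536-well plates had been treated by pin tool the day after seeding with one drug alone or a fixed anchor-drug dose plus five library-drug doses (not always all listed) in √10 steps, and nuclei were counted on 4× images. Relative viability is the ratio of nuclei in treated wells to nuclei in vehicle wells, taken as the median of duplicate plates.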
# [2] = compound: N=C1NC(=O)/C(=C/c2ccc(O)cc2)S1 [Mirin] + CCNC(=O)c1noc(-c2cc(C(C)C)c(O)cc2O)c1-c1ccc(CN2CCOCC2)cc1 [Luminespib] (partner 0.01 µM)
# How it was run: as §1
# [3] = compound: N=C1NC(=O)/C(=C/c2ccc(O)cc2)S1 [Mirin] + C[C@@H](Oc1cc(-c2cnn(C3CCNCC3)c2)cnc1N)c1c(Cl)ccc(F)c1Cl [Crizotinib] (partner 1 µM)
# How it was run: as §1
# [4] = compound: N=C1NC(=O)/C(=C/c2ccc(O)cc2)S1 [Mirin] + N=C(N)NC(=N)NCCc1ccccc1 [Phenformin] (partner 250 µM)
# How it was run: as §1
Cell Line,relative viability ([1]; first compound 0.04 µM),relative viability ([1]; first compound 0.1265 µM),relative viability ([1]; first compound 0.4 µM),relative viability ([1]; first compound 1.265 µM),relative viability ([1]; first compound 4 µM),relative viability ([2]; first compound 0.25 µM),relative viability ([2]; first compound 0.7906 µM),relative viability ([2]; first compound 2.5 µM),relative viability ([2]; first compound 7.906 µM),relative viability ([2]; first compound 25 µM),relative viability ([3]; first compound 0.25 µM),relative viability ([3]; first compound 0.7906 µM),relative viability ([3]; first compound 2.5 µM),relative viability ([3]; first compound 7.906 µM),relative viability ([3]; first compound 25 µM),relative viability ([4]; first compound 0.25 µM),relative viability ([4]; first compound 0.7906 µM),relative viability ([4]; first compound 2.5 µM),relative viability ([4]; first compound 7.906 µM),relative viability ([4]; first compound 25 µM)
NCI-H1437,1.25,1.23,1.11,0.897,0.766,1.13,1.11,1.08,1.09,1.11,0.9,0.936,0.744,0.898,0.774,0.31,0.333,0.318,0.3,0.309
PC-14,0.15,0.136,0.154,0.154,0.173,0.177,0.142,0.191,0.187,0.144,0.873,0.893,0.887,0.945,1.07,0.595,0.509,0.659,0.553,0.814
NCI-H1666,1.2,1.24,1.27,0.907,0.478,1.03,1.13,1.01,0.936,0.949,0.918,1.02,1.03,0.852,0.66,0.568,0.62,0.598,0.539,0.49
EBC-1,,,,,,,,,,,0.21,0.221,0.166,0.194,0.21,,,,,
HCC-366,,,,,,,,,,,0.464,0.62,0.44,0.443,0.413,0.627,,0.718,0.601,0.583
NCI-H1299,,,,,,,,,,,0.991,1.05,0.947,0.997,1.08,,,,,
A549,,,,,,,,,,,0.799,0.9,0.739,0.675,0.68,0.129,0.138,0.159,0.189,0.235
NCI-H1793,0.217,0.22,0.159,0.18,0.237,0.572,,0.235,0.196,0.171,,,,,,0.447,,0.362,0.287,0.374
NCI-H1623,0.527,0.555,0.509,0.49,0.706,0.547,0.506,0.574,0.449,0.325,,,,,,0.562,0.383,0.577,0.459,0.48
NCI-H1703,,,,,,,,,,,0.603,0.519,0.757,0.523,0.493,,,,,
HCC-78,,,,,,,,,,,0.362,0.381,0.371,0.386,0.41,0.661,0.616,0.867,0.571,0.793
NCI-H1395,0.674,0.849,0.538,0.384,0.449,0.687,0.449,0.662,0.649,0.622,,,,,,0.41,0.421,0.435,0.463,0.412
NCI-H522,1.04,1.27,0.853,0.797,0.767,0.884,1.11,1.23,0.875,0.801,,,,,,0.608,0.621,0.6,0.574,0.559
Calu-6,,,,,,,,,,,0.745,0.833,0.767,0.781,0.781,,,,,
